Experiments:
Format in all cases: cell-based
human TLR7 = target: T1, human TLR7 (Homo sapiens, UniProt Q9NYK1); experiment: HEK293 SEAP reporter assay, TLR panel (Example 10); settings: 16 hrs
T1 construct: host or cells: HEK293
T1 sequence (Q9NYK1 27-1049): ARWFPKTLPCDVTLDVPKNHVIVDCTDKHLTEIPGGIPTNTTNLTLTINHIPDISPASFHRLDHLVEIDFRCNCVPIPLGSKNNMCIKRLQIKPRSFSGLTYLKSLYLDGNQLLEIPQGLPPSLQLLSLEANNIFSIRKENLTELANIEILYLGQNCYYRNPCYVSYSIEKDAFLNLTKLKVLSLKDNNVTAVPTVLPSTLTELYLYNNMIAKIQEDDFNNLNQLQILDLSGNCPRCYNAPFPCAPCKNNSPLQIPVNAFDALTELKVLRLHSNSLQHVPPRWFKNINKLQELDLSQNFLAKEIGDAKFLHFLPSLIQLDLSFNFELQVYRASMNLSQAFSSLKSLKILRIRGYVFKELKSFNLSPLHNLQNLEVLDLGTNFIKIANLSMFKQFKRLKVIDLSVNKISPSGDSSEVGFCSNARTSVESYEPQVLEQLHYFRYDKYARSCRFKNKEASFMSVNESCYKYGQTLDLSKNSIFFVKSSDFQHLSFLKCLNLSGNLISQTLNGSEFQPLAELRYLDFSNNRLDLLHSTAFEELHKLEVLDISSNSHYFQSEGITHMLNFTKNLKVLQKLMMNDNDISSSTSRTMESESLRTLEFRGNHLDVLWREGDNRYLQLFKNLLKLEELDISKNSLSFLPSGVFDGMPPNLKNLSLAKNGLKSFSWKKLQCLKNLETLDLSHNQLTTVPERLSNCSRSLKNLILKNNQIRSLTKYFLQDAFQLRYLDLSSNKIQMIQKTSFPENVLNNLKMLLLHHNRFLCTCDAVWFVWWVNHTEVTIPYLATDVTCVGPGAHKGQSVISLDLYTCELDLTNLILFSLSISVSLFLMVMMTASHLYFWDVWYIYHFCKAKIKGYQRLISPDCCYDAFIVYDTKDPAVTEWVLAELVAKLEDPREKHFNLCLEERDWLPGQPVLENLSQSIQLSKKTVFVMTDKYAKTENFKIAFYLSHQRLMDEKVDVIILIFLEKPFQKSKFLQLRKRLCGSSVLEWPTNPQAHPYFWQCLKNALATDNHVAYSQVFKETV
Source text: (§1) In this example, the activity of the compound 10 to stimulate different human and mouse TLR pathways was investigated on HEK293 cells transfected with inducible SEAP (secreted embryonic alkaline phosphatase) reporter genes and also expressing different human TLRs (TLR2, TLR3, TLR4, TLR5, TLR7, TLR8, TLR9) or mouse TLRs (TLR2, TLR3, TLR4, TLR5, TLR7, TLR8, TLR13).
(§2) HEK293 reporter cell lines were purchased from Invivogen and cell lines were maintained in manufacture recommended culture medium with required supplemental antibiotics. On the day of assay, the cells were harvested with Accutase and counted by the Vi-CELL Cell Viability Analyzers. Cells were resuspended in HEK blue detection medium and a total of 10000 cells were seeded in each well of a 384-well flat bottom plate. Serial dilutions of compound 10 and compound 1 was added into treatment wells. Assay plates were cultured at 37° C. in a CO2 incubator for 16 hrs. HEK-Blue™ Detection medium changes to a purple/blue color in the presence of secreted SEAP, which can be detected by spectrophotometry at 620-655 nm. Data was fitted with non-linear regression analysis, using a log(inhibitor) vs. response-variable slope, 3-parameter fit with GraphPad Prism.

mouse TLR7 = target: T2, mouse TLR7 (Mus musculus, UniProt P58681); experiment: HEK293 SEAP reporter assay, TLR panel (Example 10); settings: 16 hrs
T2 construct: host or cells: HEK293
T2 sequence (P58681 27-1050): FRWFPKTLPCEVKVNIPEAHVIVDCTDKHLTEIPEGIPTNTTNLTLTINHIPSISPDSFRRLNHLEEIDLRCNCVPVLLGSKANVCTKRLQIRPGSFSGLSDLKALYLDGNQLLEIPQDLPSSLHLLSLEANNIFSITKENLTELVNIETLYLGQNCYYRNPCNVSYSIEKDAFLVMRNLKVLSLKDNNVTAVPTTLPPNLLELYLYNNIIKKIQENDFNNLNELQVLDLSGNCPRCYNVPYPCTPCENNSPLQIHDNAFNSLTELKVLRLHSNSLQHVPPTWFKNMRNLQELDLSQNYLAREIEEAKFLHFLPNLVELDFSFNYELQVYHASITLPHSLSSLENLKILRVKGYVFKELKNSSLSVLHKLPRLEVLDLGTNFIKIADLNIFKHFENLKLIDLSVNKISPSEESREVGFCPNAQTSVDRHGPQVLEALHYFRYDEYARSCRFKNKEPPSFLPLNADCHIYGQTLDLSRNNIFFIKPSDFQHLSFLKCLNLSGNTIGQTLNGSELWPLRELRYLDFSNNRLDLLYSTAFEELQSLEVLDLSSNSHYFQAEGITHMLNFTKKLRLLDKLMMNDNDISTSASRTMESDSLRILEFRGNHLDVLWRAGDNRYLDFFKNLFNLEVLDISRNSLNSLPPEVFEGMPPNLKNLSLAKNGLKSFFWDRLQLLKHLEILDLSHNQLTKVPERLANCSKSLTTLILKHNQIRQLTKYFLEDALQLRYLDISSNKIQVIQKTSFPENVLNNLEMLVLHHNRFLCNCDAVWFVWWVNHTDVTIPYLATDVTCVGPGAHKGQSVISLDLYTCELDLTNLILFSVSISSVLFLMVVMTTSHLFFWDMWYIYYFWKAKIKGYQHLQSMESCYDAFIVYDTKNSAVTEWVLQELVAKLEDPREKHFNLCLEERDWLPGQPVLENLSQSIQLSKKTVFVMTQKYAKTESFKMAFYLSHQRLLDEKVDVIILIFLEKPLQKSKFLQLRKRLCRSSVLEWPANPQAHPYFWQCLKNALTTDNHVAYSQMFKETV
Source text: as §1, §2

human PBMCs = experiment: Cytokine release (ELISA); settings: 24 hr, 10 μg/mL LPS-RS
Experimental: (§3) This example evaluates the ability of Compound 10 to induce cytokine release in human PBMCs, cyno PBMCs and mouse splenocytes. Compound 1 and resiquimod:
(§4) Human and cyno PBMCs, mouse splenocytes were isolated as described in previous example. The day of the assay, 300 k of PBMC or splenocytes in 50 μL of culture medium were seeded in 96-well cell culture plates. 50 μl of the test articles (formulated at 2× of starting concentration) were then added into the well. The cell mixtures were co-cultured in the presence of test articles and 10 μg/mL LPS-RS for 24 hr (human PBMCs) or 48 hr (cyno PBMCs and mouse splenocytes). Cytokines released were measured by ELISA using cell culture medium.

mouse splenocytes = experiment: Cytokine release (ELISA); settings: 48 hr, 10 μg/mL LPS-RS
Experimental: as §3, §4

CCCCCNc1nc(N)nc2ccn(Cc3ccc(CN4CCNCC4)cc3OC)c12 [Compound 1, 5-(2-methoxy-4-(piperazin-1-ylmethyl)benzyl)-N4-pentyl-5H-pyrrolo[3,2-d]pyrimidine-2,4-diamine, reference compound]
EC50 (human TLR7): 2.17 nM
EC50 (mouse TLR7): 2.6 nM

CCCCCNc1nc(N)nc2ccn(Cc3ccc(CN4CC5(CNCCO5)C4)cc3OC)c12 [Compound 10, 5-[[2-methoxy-4-(5-oxa-2,8-diazaspiro[3.5]nonan-2-ylmethyl)phenyl]methyl]-N4-pentyl-pyrrolo[3,2-d]pyrimidine-2,4-diamine]
EC50 (human TLR7): 11 nM
EC50 (mouse TLR7): 22.9 nM
IL-6 release (human PBMCs; FIG. 4A): strong
MCP-1 release (human PBMCs; FIG. 4B): strong
IL1Ra release (human PBMCs; FIG. 4C): strong
IL-6 release (mouse splenocytes; FIG. 6A): strong
MCP-1 release (mouse splenocytes; FIG. 6B): strong
TNFa release (mouse splenocytes; FIG. 6C): strong
IP-10 release (mouse splenocytes; FIG. 6D): strong

Source: patent US12534465B2, “5H-pyrrolo[3,2-d]pyrimidine-2,4-diamino compounds and antibody conjugates thereof” (SUTRO BIOPHARMA, INC., priority 2019, dated 2026)
